According to patent US9593305B2, “Differentiation of pluripotent stem cells” (Janssen Biotech, Inc., priority 2008, dated 2017):

Assays:
[1] = tested on: H1 human embryonic stem cells; assay: Analog screening with GDF-8 and growth factor/agonist pool (Example 8, Tables 7 and 8); type: cell-based
Procedure: Briefly, clusters of H1 human embryonic stem cells were grown on reduced growth factor […]™ (Invitrogen; Cat #356231)-coated tissue culture plastic. Cells were passaged using collagenase (Invitrogen; Cat #17104-019) treatment and gentle scraping, washed to remove residual enzyme, and plated with even dispersal at a ratio of 1:1 (surface area) on reduced growth factor […]™-coated 96-well black plates (Packard ViewPlates; PerkinElmer; Cat #6005182) using volumes of 100 μl/well. Cells were allowed to attach as clusters and then recover log phase growth over a 1 to 3 day period, feeding daily with MEF conditioned medium supplemented with 8 ng/ml bFGF (R&D Systems; Cat #233-FB). Plates were maintained at 37° C., 5% CO2 in a humidified box throughout the duration of assay. Growth factors purchased from R&D Systems were EGF (Cat #236-EG), FGF4 (Cat #235-F4), PDGF-A (Cat #221-AA), PDGF-D (Cat #1159-SB), PDGF-A/B (Cat #222-AB). […] Screening was conducted using a library of compounds that were made available as 5 mM stocks in 96-well plate format, solubilized in 100% DMSO (Sigma; Cat #D2650) and stored at −80° C. The compounds were further diluted to an intermediate concentration of 0.2 mM in 50 mM HEPES (Invitrogen; Cat #15630-080), 20% DMSO and stored at 4° C. Test conditions were performed in single wells, feeding on alternate days over a four-day assay period. Primary screening assays were initiated by aspirating culture medium from each well followed by three washes in PBS (Invitrogen; Cat #14190) to remove residual growth factors and serum. On the first day of assay, test volumes of 200 μl per well were added back containing DMEM:F12 base medium (Invitrogen; Cat #11330-032) supplemented with 0.5% FCS (HyClone; […] Cat #1324-WN) plus 2.5 μM compound. All remaining growth factors were tested at a final assay concentration of 50 ng/ml (EGF, FGF4, PDGF-A, PDGF-A/B, VEGF) with the exception of GDF-8 tested at 25 ng/ml. […] Cat #120-14). […] All remaining growth factors were tested at a final assay concentration of 50 ng/ml (EGF, FGF4, PDGF-A, PDGF-A/B, VEGF) with the exception of GDF-8 tested at 25 ng/ml. […] Cat #120-14). Negative control samples contained DMEM:F12 base medium supplemented with 2% FCS. […] At the conclusion of four-days of culture, assay plates were washed twice with PBS (Invitrogen; Cat #14190), fixed with 4% paraformaldehyde (Alexis Biochemical; Cat #ALX-350-011) at room temperature for 20 minutes, then washed three times with PBS and permeabilized with 0.5% Triton X-100 (Sigma; Cat #T8760-2) for 20 minutes at room temperature. Cells were washed again three times with PBS and blocked with 4% chicken serum (Invitrogen; Cat #16110082) in PBS for 30 minutes at room temperature. Primary antibody (goat anti-human SOX17; R&D Systems; Cat #AF1924) was diluted 1:100 in 4% chicken serum and added to each well for one hour at room temperature. Alexa Fluor 488 conjugated secondary antibody (chicken anti-goat IgG; Molecular Probes; Cat #AZ1467) was diluted 1:200 in PBS and added to each sample well after washing three times with PBS. To counterstain nuclei, 4 μg/ml Hoechst 33342 (Invitrogen; Cat #H3570) was added for ten minutes at room temperature. Plates were washed once with PBS and left in 100 μl/well PBS for imaging. Imaging was performed using an IN Cell Analyzer 1000 (GE Healthcare) utilizing the 51008bs dichroic for cells stained with Hoechst 33342 and Alexa Fluor 488. Exposure times were optimized from positive control wells and from untreated negative control wells stained with secondary antibody alone. Images from 15 fields per well were acquired to compensate for any cell loss during the bioassay and subsequent staining procedures. […] Segmentation for the nuclei was determined based on gray-scale levels (baseline range 100-300) and nuclear size. Averages and standard deviations were calculated for each replicate data set. […]

[2] = tested on: H1 human embryonic stem cells; assay: Analogue screening in combination with only GDF-8, SOX17 (Example 21, Tables 18 and 19); type: cell-based; parameters: Sox17 Expression: % of positive control / Cell Number: % of positive control: tested at 2.5 µM; conditions: compound in combination with GDF8; for Cell Number: Average Total Cell Number / Sox17 Expression: Average Total Intensity: four assay plates; for Cell Number: % of positive control / Sox17 Expression: % of positive control: relative to Activin A/Wnt3a of the same plate
Procedure: Briefly, clusters of H1 human embryonic stem cells were grown on reduced growth factor Matrigel™ (Invitrogen; Cat #356231)-coated tissue culture plastic. Cells were passaged using collagenase (Invitrogen; Cat #17104-019) treatment and gentle scraping, washed to remove residual enzyme, and plated with even dispersal at a ratio of 1:1 (surface area) on reduced growth factor […]™ (BD Biosciences; Cat #356231)-coated 96-well black plates (Packard ViewPlates; PerkinElmer; Cat #6005182) using volumes of 100 μl/well. Cells were allowed to attach and then recover log phase growth over a 1 to 3 day time period, feeding daily with MEF conditioned medium supplemented with 8 ng/ml bFGF (R&D Systems; Cat #233-FB). Plates were maintained at 37° C., 5% CO2 in a humidified box throughout the duration of assay.
Screening was conducted using a library of the analogue compounds. Compounds from this library were made available as 5 mM stocks in 96-well plate format, solubilized in 100% DMSO (Sigma; Cat #D2650) and stored at −80° C. The library compounds were further diluted to an intermediate concentration of 0.2 mM in 50 mM HEPES (Invitrogen; Cat #15630-080), 20% DMSO and stored at 4° C. Test conditions were performed in triplicate, feeding on alternating days over a four-day assay period. Assays were initiated by aspirating culture medium from each well followed by three washes in PBS (Invitrogen; Cat #14190) to remove residual growth factors. On the first day of assay, test volumes of 200 μl per well were added to each well using DMEM:F12 base medium (Invitrogen; Cat #11330-032) supplemented with 0.5% FCS (HyClone; Cat #SH30070.03) and 200 ng/ml GDF-8 (R&D Systems, Cat #788-G8) plus 2.5 μM compound. On the third day of assay, test volumes of 100 μl per well were added to each well using DMEM:F12 base medium supplemented with 2% FCS plus 200 ng/ml GDF-8 (R&D Systems, Cat #788-G8). Positive control samples contained the same base medium supplemented with FCS and 1000 ng/ml recombinant human activin A (PeproTech; Cat #120-14) throughout the four-day assay along with Wnt3a (20 ng/ml) on days 1 and 2. Negative control samples contained DMEM:F12 base medium supplemented with FCS, adding Wnt3a on days 1 and 2 but omitting treatment with activin A.
At the conclusion of four-days of culture, assay plates were washed twice with PBS (Invitrogen; Cat #14190), fixed with 4% paraformaldehyde (Alexis Biochemical; Cat #ALX-350-011) at room temperature for 20 minutes, then washed three times with PBS and permeabilized with 0.5% Triton X-100 (Sigma; Cat #T8760-2) for 20 minutes at room temperature. Cells were washed again three times with PBS and blocked with 4% chicken serum (Invitrogen; Cat #16110082) in PBS for 30 minutes at room temperature. Primary antibody (goat anti-human SOX17; R&D Systems; Cat #AF1924) was diluted 1:100 in 4% chicken serum and added to each well for one hour at room temperature. Alexa Fluor 488 conjugated secondary antibody (chicken anti-goat IgG; Molecular Probes; Cat #AZ1467) was diluted 1:200 in PBS and added to each sample well after washing three times with PBS. To counterstain nuclei, 4 μg/ml Hoechst 33342 (Invitrogen; Cat #H3570) was added for ten minutes at room temperature. Plates were washed once with PBS and left in 100 μl/well PBS for imaging.
Imaging was performed using an IN Cell Analyzer 1000 (GE Healthcare) utilizing the 51008bs dichroic for cells stained with Hoechst 33342 and Alexa Fluor 488. Exposure times were optimized from positive control wells and from untreated negative control wells stained with secondary antibody alone. Images from 15 fields per well were acquired to compensate for any cell loss during the bioassay and subsequent staining procedures. Measurements for total cell number and total SOX17 intensity were obtained from each well using IN Cell Developer Toolbox 1.7 (GE Healthcare) software. […]

[3] = Plate 1, compound + EGF, FGF, PDGF-A, VEGF, PDGF-D, muscimol, GDF8
[4] = Plate 1, compound + EGF, FGF, PDGF-A, VEGF, PDGF-D, muscimol, GDF8, positive control Activin A/Wnt3a
[5] = Table 8: hits with greater than 25% activity of the positive control, with GDF-8 and growth factors/agonists
[6] = Plate 2, compound + EGF, FGF, PDGF-A, VEGF, PDGF-D, muscimol, GDF8
[7] = Plate 2, compound + EGF, FGF, PDGF-A, VEGF, PDGF-D, muscimol, GDF8, positive control Activin A/Wnt3a

Structure (SMILES)	Cell Number, Average Total Cell Number [1, 3]	Sox17 Expression, Average Total Intensity [1, 3]	Cell Number, % of positive control [1, 4]	Sox17 Expression, % of positive control [1, 4]	Cell Number, % of positive control [1, 5]	Sox17 Expression, % of positive control [1, 5]	Sox17 Expression, Average Total Intensity [1, 5]	Cell Number: Average Total Cell Number [2]	Sox17 Expression: Average Total Intensity [2]	Cell Number: % of positive control [2] [%]	Sox17 Expression: % of positive control [2] [%]	Cell Number, Average Total Cell Number [1, 6]	Sox17 Expression, Average Total Intensity [1, 6]	Cell Number, % of positive control [1, 7]	Sox17 Expression, % of positive control [1, 7]
O=C1NCCc2cccc(c2)Nc2ncnc(n2)-c2cccc(c2)CCCN2CCC1CC2 [Compound 31, 1,11,13,15,23,31-Hexaazapentacyclo[23.2.2.1˜5,9˜0.1˜10,14˜0.1˜16,20˜]dotriaconta-5(32), 6,8,10(31), 11,13,16(30), 17,19-nonaen-24-one]	6957	6.59E+07	51.9 % of positive control	26.3 % of positive control	51.9 % of positive control	26.3 % of positive control	6.59E+07	3619	1.36E+07	24.1	3.9				
O=C1NCCCc2cc(ccc2F)-c2ncnc(n2)Nc2cc(Cl)cc(c2)CN2CCCC1C2 (centres unmarked) [Compound 26, 10-Chloro-25-fluoro-3,5,7,14,20,31-hexaazapentacyclo[22.3.1.1˜2,6˜0.1˜8,12˜0.1˜14,18˜]hentriaconta-1(28), 2(31), 3,5,8(30), 9,11,24,26-nonaen-19-one]	7415	8.30E+07	55.4 % of positive control	33.1 % of positive control	55.4 % of positive control	33.1 % of positive control	8.30E+07	4896	1.65E+07	32.6	4.8				
O=C1CCN2CCN(CC2)Cc2cc(ccc2Cl)Nc2ncnc(n2)-c2ccnc(c2)CCCN1 [Compound 27, 4-Chloro-1,8,10,12,17,22,26,32-octaazapentacyclo[24.2.2.1˜3,7˜1.˜9,13˜0.1˜14,18˜1]tritriaconta-3(33), 4,6,9(32), 10,12,14(31), 15,17-nonaen-23-one]					50.9 % of positive control	30.8 % of positive control	8.81E+07	3721	1.19E+07	26.7	3.9	8044	8.81E+07	50.9 % of positive control	30.8 % of positive control
CCN1CCCc2cccc(c2)-c2ncnc(n2)Nc2ccccc2CNC(=O)C1 [Compound 32, 15-Ethyl-13,14,15,16,18,19-hexahydro-1H-6,2-(azeno)-7,11-(metheno)-1,3,5,15,18-benzopentaazacyclohenicosin-17(12H)-one]	8066	9.29E+07	60.2 % of positive control	37.1 % of positive control	60.2 % of positive control	37.1 % of positive control	9.29E+07	4338	3.63E+07	28.9	10.5				
